Measured values: a melting point compilation (Tetko et al.; mined from patent text by program, amines drawn as free bases though some values may be those of a salt)

| Structure (SMILES) | melting point |
| --- | --- |
| CC1(C)OC(=O)Nc2ccc(-c3cc(C#N)cc(OC(F)(F)F)c3)cc21 | 227 to 228 °C |
| CC(C)(C)OC(=O)Nc1c(F)ccc2c1OC(C)(C)O2 | 106 to 107 °C |
| COC(=O)c1cc2c(cc1O)CCCC2 | 41 to 42 °C |
| Fc1ccccc1C1=NCc2cncn2-c2ccc(Cl)cc21 | 148 to 151 °C |
| CCOC(=O)C(=NOCCI)c1csc(NC(c2ccccc2)(c2ccccc2)c2ccccc2)n1 | 110 °C |
| CP(C)(=O)COC(=O)c1cncn1C(c1ccccc1)c1ccccc1 | 174 °C |
| CCCN1CCC(=O)C2=C1COc1ccc(OC)cc12 | 97 to 100 °C |
| CCOc1ccc2[nH]c(C)cc2c1 | 76 to 77 °C |
| CC(=O)C(C(=O)Nc1ccccc1)C(C)C (stereo unspecified) | 135 to 137 °C |
| CON1C(C)(C)CC(CCCCNc2nc(N)nc(NCCCCC3CC(C)(C)N(OC)C(C)(C)C3)n2)CC1(C)C | 163 to 165 °C |
| CC1(OCC(F)(F)F)C=NC(c2cc(-c3ccc(S(C)(=O)=O)cc3)c(N3CCOCC3)s2)=CC1 (stereo unspecified) | 156 °C |
| CN1C(=O)COc2c1cc(Cl)c([N+](=O)[O-])c2C(=O)O | 257 °C |
| O=C(CN1C(=O)CSC1=O)c1ccc(Cl)cc1 | 122 to 124 °C |
| O=S(=O)(O)c1ccc(NCc2ccc(Cl)cc2)cc1 | > 270 °C |
| COc1ccccc1CNC(=O)C1N(C(=O)C(O)C(Cc2ccccc2)NC(=O)c2cccc(O)c2C)CSC1(C)C (stereo unspecified) | 123 to 125 °C |
| C=C(C1=C(CCC(=O)O)C(O)CC1O)c1ccccc1 (stereo unspecified) | 124 to 126 °C |
| COC(=O)c1ccccc1S(=O)(=O)NC(=O)Nc1nc(C)cc(OC(F)F)n1 | 162 to 164 °C |
| CCOCc1nc2c(N)nc3ccccc3c2n1CCCCCS(=O)(=O)NCc1ccc(OC)cc1 | 177 to 178 °C |
| FC(F)(F)c1ccc(Nc2nc3ccccc3o2)cc1 | 180 to 182 °C |
| CC1(C)CN=C(c2cnc(S(C)(=O)=O)c(Cl)c2)O1 | 102 to 105 °C |
| COc1ccccc1C(=O)Nc1nc2ccccc2s1 | 196 to 197 °C |
| N#Cc1ccccc1OCCCCC(=O)O | 87 to 89 °C |
| CCOC(=O)Cn1c2ccc(Cl)ccc-2c(C(=O)OCC)c1=O | 177 to 179 °C |
| OCCCCOc1ccc2cc(O)ccc2c1 | 148 to 150 °C |
| CC(C)(CCn1ccnc1)NCC(O)c1ccc(OCc2ccccc2)c(NC(N)=O)c1 (stereo unspecified) | 142 to 143 °C |
| c1ccc(Cn2ccnc2-c2nnn[nH]2)cc1 | 274 to 275 °C |

| Structure (SMILES) | melting point |
| --- | --- |
| CCCCNc1nc(N)nc2c1ncn2C1C=CC(CO)C1 (stereo unspecified) | 116 to 118 °C |
| O=C(O)c1cccc(CN2C(=O)C3(COc4cc5c(cc43)CCO5)c3ccccc32)c1 (stereo unspecified) | > 250 °C |
| COc1ccc2cccc(CCNC(C)=O)c2c1 | 108 °C |
| COc1cc2c(cc1OC)CN(CCCOc1ccc(NC(=O)c3cccc4c(=O)c5cccc(OC)c5[nH]c34)cc1)CC2 | 190 °C |
| CCN1CCCCC1CCc1ccccc1NC(=O)c1ccc(OC)cc1 (stereo unspecified) | 136 to 138 °C |
| CC1(C)Oc2cc(CCc3ccccc3)cc(O)c2C2=CC(=O)CCC21 (stereo unspecified) | 233 to 235 °C |
| Cc1ccc2ncc(Oc3c(Cl)cc(NS(=O)(=O)c4cc(C)c(Cl)cc4Cl)cc3Cl)cc2c1 | 228 to 230 °C |
| CCc1ccc(Nc2c(C(=O)NN)ccc(F)c2F)c(F)c1 | 97.9 to 98.5 °C |
| O=[N+]([O-])c1c(-c2cc(Cl)cc(Cl)c2)[nH]c2c(Cl)cc(Cl)cc12 | 272 to 273 °C |
| Cc1ccc(-c2cc3cc(C(=O)Nc4ccc(CN(C)C5CCOCC5)cc4)ccc3o2)cc1 | 233 to 236 °C |
| Cc1ccc2c(c1)C(=O)CC21CNC(=O)C1 (stereo unspecified) | 162 to 164 °C |
| OCc1ccc2cc(-c3nnc(CSCCOc4ccccc4)o3)ccc2c1 | 132 to 133 °C |
| O=C1c2ccccc2OCN1CCCCCO[N+](=O)[O-] | 39 to 41 °C |
| COC(=O)C(C)(C)Cc1c(SC(C)(C)C)c2cc(OC)ccc2n1Cc1ccc(Cl)cc1 | 102 to 103 °C |
| CCOC(=O)c1ccc(S(=O)(=O)C(C)(C)C)cc1Cl | 82.4 to 83 °C |
| C=C(C)Cc1cc(C)c2c(c1O)C(=O)CC2 | 62.5 to 64 °C |
| CC(C)(C)Sc1c(CC(C)(C)C(=O)O)n(Cc2ccc(Cl)cc2)c2ccc(OCc3cnc4ccccc4n3)cc12 | 216 to 219 °C |
| COC(=O)c1ccc(OCc2cccc(OCc3ccc4ccccc4n3)c2)c(OC)c1 | 100 to 101 °C |
| COc1ccccc1Oc1c(Cl)nc(-c2ccccn2)nc1NS(=O)(=O)c1ccc(C(C)(C)C)cc1 | 122 to 123 °C |
| CC(C)(C)OC(=O)N(Cc1ccccc1)C1CN(C(c2ccccc2)c2ccccc2)C1 | 117 to 118 °C |
| CCCc1nc2c(N)nc3ccccc3c2n1CCCC(=O)N(C)OC | 163 to 165 °C |
| CC1CCc2nc(N)sc2C1 (stereo unspecified) | 98 to 100 °C |
| COc1cc(-c2nnc3n2CCC[C@]3(Oc2cc(F)c(F)c(F)c2)C(C)(C)O)ccc1-c1cnc(C)o1 | 188 °C |
| CC(=O)Oc1ccc(N)cc1C(=O)O | 133 to 136 °C |
| CC(=O)OCC(=O)NCCCn1c(-c2ccc(Br)cc2)csc1=Nc1ccccc1 | 156 to 159 °C |
| COc1cc2c(cc1OC)C(C(=O)Nc1c(C(C)C)cccc1C(C)C)SCC2 (stereo unspecified) | 72 to 74 °C |

| Structure (SMILES) | melting point |
| --- | --- |
| O=C(c1ccccc1)c1ccc(O)c(O)c1[N+](=O)[O-] | 153 to 155 °C |
| CNC(=O)C(Cc1ccc(OC)cc1)NC(=O)C(C)(CC(C)C)c1ccc(Cl)cc1S (stereo unspecified) | 174 to 178 °C |
| Cc1c(-c2ccccc2)nn2c1-c1ccccc1CC2 | 122 to 124 °C |
| C[C@]1(COc2ccc(N3CCN(CC=Cc4ccc(Cl)c(Cl)c4)CC3)cc2)Cn2cc([N+](=O)[O-])nc2O1 | 205 to 206 °C |
| O=C1Nc2ccccc2N2C(=O)OCC12 (stereo unspecified) | 230 to 231 °C |
| COC(=O)c1cc2cc(C[C@@H](C)NC[C@H](O)c3cccc(Cl)c3)ccc2n1CC1CC1 | 135 to 137 °C |
| Cc1ccc([N+](=O)[O-])c(Oc2cc(C(F)(F)F)nn2C)c1 | 88 to 90 °C |
| N#Cc1nc(-c2ccc(OCCN3CCCCC3)cc2)cs1 | 85 to 86 °C |
| CCN1C(=O)CCCc2cc(Nc3ncc(Cl)c(N[C@@H]4CCCC[C@H]4NS(C)(=O)=O)n3)c(OC)cc21 | 120 to 128 °C |
| C#CCn1c(=O)n(C)c2ccccc21 | 110 to 112 °C |
| NC(C(=O)O)c1cc(O)cc(O)c1[N+](=O)[O-] (stereo unspecified) | > 280 °C |
| C=CCOc1cc(C(O)(C(F)(F)F)C(F)(F)F)cc2c(C)cc(=O)[nH]c12 | 214 to 216 °C |
| ClC(Cl)(Cl)c1nnc(Br)s1 | 39 °C |
| N#CC1(c2cccs2)CC1 | 118 to 122 °C |
| COc1cc2ccccc2cc1N(C)C(=O)N1CCN(c2cc(Cl)cc(Cl)c2)CC1 | 165 to 167 °C |
| CSc1ccc2c(=O)c(OS(C)(=O)=O)cn(C)c2c1 | 182 °C |
| Cc1cccc(-n2c(Cn3ccnc3)nc3ccccc32)c1 | 91 to 93 °C |
| FC(F)(F)c1n[nH]cc1-c1nc(Nc2ccccn2)cs1 | 204 to 206 °C |
| COc1ccc(F)cc1C(C)(C)CC(O)(Cn1ccc(=N)c2ccccc21)C(F)(F)F (stereo unspecified) | 137 to 140 °C |
| NCc1cc(-c2csc(N=C(N)N)n2)ccn1 | > 210 °C |
| CCCC(=O)NC1=CC(=O)c2ccc(C=O)nc2C1=O | 208 to 210 °C |
| COc1ccc([C@@H]2Sc3ccccc3N(CCN(C)C)C(=O)[C@@H]2OC(=O)Nc2ccccc2)cc1 (relative stereo) | 106 to 108 °C |
| CN1CCN(c2cccc3c2C[C@H](NC(=O)c2ccc(C#N)cc2)CC3)CC1 | 184 to 186 °C |
| OCC1OC(SCC=Cc2ccccc2)C(O)C(O)C1O (stereo unspecified) | 145 to 146 °C |
| CCCC(=O)c1cc2c(=O)c(C(=O)O)c[nH]c2cc1C | 249 to 252 °C |
| Oc1cccc(OCCCCOc2cccc(O)c2)c1 | 103 to 106 °C |

| Structure (SMILES) | melting point |
| --- | --- |
| CN(C(=O)c1ccc(Cn2cnc3ncnc-3c2)cc1)C1CCCCC1 | 229 to 230 °C |
| N#CC(c1ccccc1)(c1ccccc1)[C@H]1CCCN(CCc2ccc3c(c2)CCO3)C1 | 137 to 140 °C |
| CCCc1nc(N2CCOCC2)c2cscc2n1 | 102 to 105 °C |
| Cc1ccc(-c2ncc3c(n2)CCCCC3)nc1-c1ccncc1 | 198 to 200 °C |
| NC(=O)c1cc(-c2ccc(Cl)cc2)n(-c2ccc(S(N)(=O)=O)cc2)n1 | 108 to 110 °C |
| CSC(=C[N+](=O)[O-])S(C)=O (stereo unspecified) | 137 to 143 °C |
| COC(=O)c1ccc(CCc2c[nH]c3nc(N)[nH]c(=O)c23)cc1 | > 220 °C |
| CCCCc1nnc2ccccc2c1Cc1ccc(-c2ccccc2C(=O)O)cc1 | 210 °C |
| COc1ccc(C(=O)c2ccc(Br)cc2)c(C)c1F | 93 to 95 °C |
| O=c1[nH]c2ccccc2n1CCCN1CCC(O)(c2ccc(Cl)cc2)CC1 | 134 °C |
| CS(=O)(=O)c1ccc(-c2cnn(-c3ccc(F)c(Cl)c3)c(=O)c2Cc2ccccc2)cc1 | 164 to 166 °C |
| CC(=O)SCC(Cc1ccccc1)NC(=O)OC(C)(C)C (stereo unspecified) | 92 to 94 °C |
| CN1C(=O)CC(=O)N(c2ccccc2)c2cc(Cl)ccc21 | 166 to 168 °C |
| COc1ccc2cc(C(C)C(=O)OC/C=C\COC(=O)OC(C)O[N+](=O)[O-])ccc2c1 (stereo unspecified) | 76 to 78 °C |
| Oc1ccc(NCCCCCCCBr)cc1 | 121 to 123 °C |
| CCCCCC(C)C(C)c1cc(O)c2c(c1)OC(C)(C)C1=C2CN(C(C)C(=O)NC(N)=O)CC1 (stereo unspecified) | 95 to 100 °C |
| O=C(CN1CCOCC1)Nc1nc2c(Oc3cc(-c4ccc(C(F)(F)F)cc4)ncn3)cccc2s1 | 178 to 182 °C |
| CC(=O)Nc1cc(C)cc(C=O)n1 | 202 °C |
| CC(=O)NCC1CN(c2ccc3c(c2)OCC2CN(C(=O)c4cc5ccccc5[nH]4)CCN32)C(=O)O1 (stereo unspecified) | > 250 °C |
| COc1ccc2c(C)c(CCOS(C)(=O)=O)c(=O)oc2c1 | 174 to 175 °C |
| Cc1cc(-c2cc(C(F)F)n3ncc(C(=O)Nc4cccc(S(N)(=O)=O)c4)c3n2)ccc1C(F)(F)F | 252 °C |
| CCCc1c(OCCCCCCc2ccc(OCCCC(=O)O)cc2/C=C/C(=O)O)ccc2c1OCCC2=O | 140 to 143 °C |
| Cc1ccc(C(=O)N2CCc3cc(S(=O)(=O)N4CC(c5ccccc5)NC4=O)ccc32)cc1 (stereo unspecified) | 125 °C |
